{"source": "ChEMBL document CHEMBL4346735", "about": "“Discovery and pharmacological evaluation of indole derivatives as potent and selective RORγt inverse agonist for multiple autoimmune conditions” (Bioorg Med Chem Lett, 2019)", "key": {"[1]": {"test": "Metabolic stability in rat hepatocytes assessed as parent compound remaining after 60 mins", "assay_type": "ADME, cell-based, Hepatocyte", "conditions": "read-out: Stability"}, "[2]": {"test": "Plasma protein binding in dog", "assay_type": "ADME, Canis lupus familiaris", "conditions": "read-out: PPB"}, "[3]": {"test": "Volume of distribution at steady state in mouse at 3 mg/kg, iv", "assay_type": "ADME, organism-based", "conditions": "in vivo, read-out: Vdss"}, "[4]": {"test": "Transrepression of RORgammat in cytostim stimulated human whole blood assessed as suppression of IL-17 secretion incubated for 24 hrs", "assay_type": "tissue-based"}, "Mus musculus [5]": {"tested_on": "Mus musculus", "test": "Inhibition of anti-CD3-induced IL-17A level in Balb/c mouse plasma at 10 mg/kg, po treated prior to stimulation with anti-CD3 for 3 hrs relative to control", "assay_type": "functional"}, "[6]": {"test": "Clearance in mouse at 3 mg/kg, iv", "assay_type": "ADME, organism-based", "conditions": "in vivo"}, "[7]": {"test": "Metabolic stability in rat liver microsomes assessed as parent compound remaining at 1 uM preincubated for 5 mins followed by NADPH addition after 30 mins by LC-MS/MS analysis", "assay_type": "ADME, Microsome", "conditions": "read-out: Stability"}, "[8]": {"test": "Metabolic stability in simulated intestinal fluid assessed as compound remaining after 15 mins", "assay_type": "ADME", "conditions": "read-out: Stability"}, "HepG2": {"tested_on": "HepG2", "test": "Cytotoxicity against human HepG2 cells"}, "[9]": {"test": "Plasma protein binding in rat", "assay_type": "ADME", "conditions": "read-out: PPB"}, "[10]": {"test": "AUC (0 to 24 hrs) in mouse at 10 mg/kg, po", "assay_type": "ADME, organism-based", "parameters": "dose 10 mg/kg, time < 24 hr, route oral", "conditions": "in vivo"}, "[11]": {"test": "Metabolic stability in simulated intestinal fluid assessed as compound remaining after 3 hrs", "assay_type": "ADME", "conditions": "read-out: Stability"}, "Mus musculus [12]": {"tested_on": "Mus musculus", "test": "Immunosuppressive activity in MOG (35 to 55 residues)/pertussis toxin-induced experimental allergic encephalomyelitis C57BL/6J mouse model assessed as reduction in IL-17A gene expression in spinal cord at 30 mg/kg, po bid measured at day 23 post MOG immunization/pertusis immunization relative to control", "assay_type": "functional", "conditions": "552 h"}, "[13]": {"molecular_target": "T1, Nuclear receptor ROR-gamma (Mus musculus, UniProt P51450)", "T1 sequence (P51450 whole entry)": "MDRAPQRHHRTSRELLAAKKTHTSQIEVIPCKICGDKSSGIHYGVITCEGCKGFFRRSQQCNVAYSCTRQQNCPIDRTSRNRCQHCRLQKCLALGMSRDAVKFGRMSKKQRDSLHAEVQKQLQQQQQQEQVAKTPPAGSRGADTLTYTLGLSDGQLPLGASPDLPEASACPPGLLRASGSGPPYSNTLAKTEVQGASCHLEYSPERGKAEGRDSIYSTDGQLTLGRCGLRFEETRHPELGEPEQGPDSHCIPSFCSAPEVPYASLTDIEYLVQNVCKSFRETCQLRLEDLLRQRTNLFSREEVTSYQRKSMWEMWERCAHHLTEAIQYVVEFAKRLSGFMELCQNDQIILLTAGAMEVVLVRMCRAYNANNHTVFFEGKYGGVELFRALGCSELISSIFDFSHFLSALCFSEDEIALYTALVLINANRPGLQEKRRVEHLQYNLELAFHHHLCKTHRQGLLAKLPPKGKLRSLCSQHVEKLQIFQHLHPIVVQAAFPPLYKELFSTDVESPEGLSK", "test": "Transrepression of RORgammat in Balb/c mouse splenocytes assessed as reduction in anti-CD3/anti-CD28 stimulated IL-17 level measured after 48 hrs in presence of anti-CD3/anti-CD28 by ELISA", "assay_type": "cell-based"}, "Mus musculus [14]": {"tested_on": "Mus musculus", "test": "Immunosuppressive activity in MOG (35 to 55 residues)/pertussis toxin-induced experimental allergic encephalomyelitis C57BL/6J mouse model assessed as reduction in IL-22 gene expression in spinal cord at 30 mg/kg, po bid measured at day 19 post MOG immunization/pertusis immunization relative to control", "assay_type": "functional", "conditions": "456 h"}, "[15]": {"test": "Plasma protein binding in mouse", "assay_type": "ADME", "conditions": "read-out: PPB (converted)"}, "Mus musculus [16]": {"tested_on": "Mus musculus", "test": "Immunosuppressive activity in MOG (35 to 55 residues)/pertussis toxin-induced experimental allergic encephalomyelitis C57BL/6J mouse model assessed as reduction in disease severity score at 30 mg/kg, po bid measured at day 23 relative to dexamethasone", "assay_type": "functional", "conditions": "552 h"}, "Mus musculus [17]": {"tested_on": "Mus musculus", "test": "Immunosuppressive activity in MOG (35 to 55 residues)/pertussis toxin-induced experimental allergic encephalomyelitis C57BL/6J mouse model assessed as reduction in IL-17F gene expression in spinal cord at 30 mg/kg, po bid measured at day 19 post MOG immunization/pertusis immunization relative to control", "assay_type": "functional", "conditions": "456 h"}, "Mus musculus [18]": {"tested_on": "Mus musculus", "test": "Immunosuppressive activity in MOG (35 to 55 residues)/pertussis toxin-induced experimental allergic encephalomyelitis C57BL/6J mouse model assessed as reduction in GM-CSF gene expression in spinal cord at 30 mg/kg, po bid measured at day 23 post MOG immunization/pertusis immunization relative to control", "assay_type": "functional", "conditions": "552 h"}, "[19]": {"test": "Mutagenicity in Salmonella typhimurium by mini Ames test", "assay_type": "toxicity", "conditions": "salmonella enterica subsp. enterica serovar typhimurium"}, "[20]": {"test": "Metabolic stability in mouse hepatocytes assessed as parent compound remaining after 60 mins", "assay_type": "ADME, cell-based, Hepatocyte", "conditions": "read-out: Stability"}, "[21]": {"test": "Metabolic stability in human liver microsomes assessed as parent compound remaining at 1 uM preincubated for 5 mins followed by NADPH addition after 30 mins by LC-MS/MS analysis", "assay_type": "ADME, Microsome", "conditions": "read-out: Stability"}, "[22]": {"test": "Metabolic stability in simulated gastric fluid assessed as compound remaining after 45 mins", "assay_type": "ADME", "conditions": "read-out: Stability"}, "[23]": {"test": "Tmax in mouse at 10 mg/kg, po", "assay_type": "ADME, organism-based", "conditions": "in vivo"}, "Mus musculus [24]": {"tested_on": "Mus musculus", "test": "Inhibition of anti-CD3-induced IL-17A level in Balb/c mouse plasma at 30 mg/kg, po treated prior to stimulation with anti-CD3 for 3 hrs relative to control", "assay_type": "functional"}, "[25]": {"test": "Metabolic stability in simulated gastric fluid assessed as compound remaining after 30 mins", "assay_type": "ADME", "conditions": "read-out: Stability"}, "Splenocyte": {"tested_on": "Splenocyte", "test": "Cytotoxicity against mouse splenocytes assessed as cell viability incubated for 6 days in presence of anti-CD4/anti-IFNgamma/TGFbeta/IL-6", "assay_type": "cell-based", "conditions": "144 h"}, "[26]": {"test": "Cytotoxicity against Balb/c mouse splenocytes assessed as cell viability in presence of anti-CD3/anti-CD28 measured after 24 hrs", "assay_type": "cell-based, Splenocyte", "conditions": "read-out: Activity"}, "Mus musculus [27]": {"tested_on": "Mus musculus", "test": "Immunosuppressive activity in MOG (35 to 55 residues)/pertussis toxin-induced experimental allergic encephalomyelitis C57BL/6J mouse model assessed as reduction in disease severity score at 10 mg/kg, po bid measured at day 23 relative to dexamethasone", "assay_type": "functional", "conditions": "552 h"}, "[28]": {"test": "Metabolic stability in simulated intestinal fluid assessed as compound remaining after 30 mins", "assay_type": "ADME", "conditions": "read-out: Stability"}, "[29]": {"test": "Half life in mouse at 3 mg/kg, iv", "assay_type": "ADME, organism-based", "conditions": "in vivo"}, "[30]": {"test": "Metabolic stability in simulated gastric fluid assessed as compound remaining after 60 mins", "assay_type": "ADME", "conditions": "read-out: Stability"}, "[31]": {"test": "Metabolic stability in human hepatocytes assessed as parent compound remaining after 60 mins", "assay_type": "ADME, cell-based, Hepatocyte", "conditions": "read-out: Stability"}, "[32]": {"test": "Metabolic stability in dog hepatocytes assessed as parent compound remaining after 60 mins", "assay_type": "ADME, cell-based, Canis lupus familiaris, Hepatocyte", "conditions": "read-out: Stability"}, "[33]": {"molecular_target": "T1, Nuclear receptor ROR-gamma", "test": "Inverse agonist activity at RORgammat in mouse splenocytes derived naive T cells assessed as suppression of T cell differentiation to Th17 cells by measuring IL-17 secretion in presence of […]/anti-IFNgamma/TGFbeta/IL-6 for 6 days by ELISA", "assay_type": "cell-based"}, "[34]": {"test": "Metabolic stability in simulated gastric fluid assessed as compound remaining after 15 mins", "assay_type": "ADME", "conditions": "read-out: Stability"}, "Mus musculus [35]": {"tested_on": "Mus musculus", "test": "Immunosuppressive activity in MOG (35 to 55 residues)/pertussis toxin-induced experimental allergic encephalomyelitis C57BL/6J mouse model assessed as reduction in disease severity score at 30 mg/kg, po bid measured at day 21 relative to dexamethasone", "assay_type": "functional", "conditions": "504 h"}, "[36]": {"test": "AUC in mouse liver at 10 mg/kg, po", "assay_type": "ADME, organism-based"}}, "note": "pIC50: −log10 of the molar value."}
{"smiles": "O=C(O)c1ccc(-n2cc(C(=O)c3c(Cl)cccc3Cl)c3cccc(F)c32)cc1", "values": [{"measurement": "remaining at 1 h", "setting": "[1]", "result": 57, "unit": "%"}, {"measurement": "fraction unbound", "setting": "[2]", "result": 0.01}, {"measurement": "Vd", "setting": "[3]", "result": 4.8, "unit": "L/kg"}, {"measurement": "pIC50", "setting": "[4]", "result": 6.31}, {"measurement": "inhibition in vivo at 10 mg/kg", "setting": "Mus musculus [5]", "result": 17, "unit": "%"}, {"measurement": "clearance", "setting": "[6]", "result": 23.4, "unit": "mL/min/kg"}, {"measurement": "remaining at 0.5 h, 1 µM", "setting": "[7]", "result": 100, "unit": "%"}, {"measurement": "remaining at […]", "setting": "[8]", "result": 100, "unit": "%"}, {"measurement": "pIC50", "setting": "HepG2", "result": "< 4.30"}, {"measurement": "fraction unbound", "setting": "[9]", "result": 0.01}, {"measurement": "AUC(0-t) at 24 h", "setting": "[10]", "result": 10.4, "unit": "µM·h"}, {"measurement": "remaining at 3 h", "setting": "[11]", "result": 100, "unit": "%"}, {"measurement": "inhibition in vivo at 30 mg/kg", "setting": "Mus musculus [12]", "result": 43, "unit": "%"}, {"measurement": "pIC50", "setting": "[13]", "result": 6.30}, {"measurement": "inhibition in vivo at 30 mg/kg", "setting": "Mus musculus [14]", "result": 36, "unit": "%"}, {"measurement": "fraction unbound", "setting": "[15]", "result": 0.02}, {"measurement": "inhibition in vivo at 30 mg/kg", "setting": "Mus musculus [16]", "result": 39, "unit": "%"}, {"measurement": "inhibition in vivo at 30 mg/kg", "setting": "Mus musculus [17]", "result": 70, "unit": "%"}, {"measurement": "inhibition in vivo at 30 mg/kg", "setting": "Mus musculus [18]", "result": 70, "unit": "%"}, {"measurement": "Activity", "setting": "[19]", "result": "Non-Toxic"}, {"measurement": "remaining at 1 h", "setting": "[20]", "result": 80, "unit": "%"}, {"measurement": "remaining at 0.5 h, 1 µM", "setting": "[21]", "result": 88, "unit": "%"}, {"measurement": "remaining at 0.75 h", "setting": "[22]", "result": 93, "unit": "%"}, {"measurement": "Tmax", "setting": "[23]", "result": 0.5, "unit": "h"}, {"measurement": "inhibition in vivo at 30 mg/kg", "setting": "Mus musculus [24]", "result": 33, "unit": "%"}, {"measurement": "remaining at 0.5 h", "setting": "[25]", "result": 90, "unit": "%"}, {"measurement": "Activity", "setting": "Splenocyte", "result": "Non-Toxic"}, {"measurement": "viability at 24 h", "setting": "[26]", "result": "> 95", "unit": "%"}, {"measurement": "inhibition in vivo at 10 mg/kg", "setting": "Mus musculus [27]", "result": 31, "unit": "%"}, {"measurement": "remaining at 0.5 h", "setting": "[28]", "result": 100, "unit": "%"}, {"measurement": "half-life", "setting": "[29]", "result": 2.4, "unit": "h"}, {"measurement": "remaining at 1 h", "setting": "[30]", "result": 93, "unit": "%"}, {"measurement": "remaining at 1 h", "setting": "[31]", "result": 59, "unit": "%"}, {"measurement": "remaining at 1 h", "setting": "[32]", "result": 51, "unit": "%"}, {"measurement": "pIC50", "setting": "[33]", "result": 7.59}, {"measurement": "remaining at […]", "setting": "[34]", "result": 84, "unit": "%"}, {"measurement": "inhibition in vivo at 30 mg/kg", "setting": "Mus musculus [35]", "result": 26, "unit": "%"}, {"measurement": "AUC", "setting": "[36]", "result": 400, "unit": "µM·h"}]}
